Results published in patent EP4273147A1, “SUBSTITUTED SPIROLACTAMS, SALTS THEREOF AND THEIR USE AS HERBICIDALLY ACTIVE SUBSTANCES” (Bayer Aktiengesellschaft, priority 2022, dated 2023).
Each block holds one molecule with its values, some of them ahead of it.

Tests used:
[1] = test system: ABUTH; assay: Herbicidal pre-emergence action, section C (Table C1); format: in vivo, Abutilon theophrasti; conditions: application rate 320 g/ha; visual grading after ca. 3 weeks
[2] = test system: DIGSA; assay: Herbicidal pre-emergence action, section C (Table C5); format: in vivo, Digitaria sanguinalis; conditions: visual grading after ca. 3 weeks
[3] = test system: ORYZA; assay: Post-emergence effects on crop plants (Table F3); format: in vivo, Oryza sativa; conditions: application rate 320 g/ha, crop plant ORYZA
Excerpt: (§1) 2 to 3 weeks after sowing, the test plants were sprayed in the single-leaf stage.

[4] = test system: VIOTR; assay: Herbicidal pre-emergence action, section C (Table C12); format: in vivo, Viola tricolor; conditions: visual grading after ca. 3 weeks
[5] = test system: ZEAMX; assay: Post-emergence effects on crop plants (Table F1); format: in vivo, Zea mays; conditions: crop plant ZEAMX
Excerpt: as §1

[6] = test system: VERPE; assay: Herbicidal pre-emergence action, section C (Table C11); format: in vivo, Veronica persica; conditions: visual grading after ca. 3 weeks
[7] = test system: TRZAS; assay: Post-emergence effects on crop plants (Table F2); format: in vivo, Triticum aestivum; conditions: application rate 320 g/ha, crop plant TRZAS
Excerpt: as §1

[8] = test system: AMARE; assay: Herbicidal pre-emergence action, section C (Table C3); format: in vivo, Amaranthus retroflexus; conditions: application rate 320 g/ha; visual grading after ca. 3 weeks
[9] = test system: MATIN; assay: Herbicidal pre-emergence action, section C (Table C8); format: in vivo, Matricaria inodora; conditions: application rate 320 g/ha; visual grading after ca. 3 weeks
[10] = test system: GLXMA; assay: Post-emergence effects on crop plants (Table F4); format: in vivo, Glycine max; conditions: crop plant GLXMA
Excerpt: as §1

[11] = test system: BRSNW; assay: Post-emergence effects on crop plants (Table F5); format: in vivo, Brassica napus; conditions: application rate 320 g/ha, crop plant BRSNW
Excerpt: as §1

[12] = test system: ALOMY; assay: Herbicidal pre-emergence action, section C (Table C2); format: in vivo, Alopecurus myosuroides; conditions: visual grading after ca. 3 weeks
[13] = test system: VERPE; assay: Herbicidal pre-emergence action (Table A11); format: in vivo, Veronica persica; conditions: application rate 1280 g/ha; visual grading after ca. 3 weeks
In short: (§2)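 Seeds of monocot and dicot weeds were sown in pots of sandy loam and covered with soil. Each pot held a double sowing: one monocotyledonous plus one dicotyledonous species.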

[14] = test system: VERPE; assay: Herbicidal post-emergence action, section E (Table E9); format: in vivo, Veronica persica; conditions: application rate 320 g/ha; assessed visually after ca. 3 weeks
Excerpt: as §1

[15] = test system: KCHSC; assay: Herbicidal post-emergence action (Table B4); format: in vivo, Kochia scoparia; conditions: application rate 1280 g/ha; rated visually after about 3 weeks
Method: (§3) Seeds of mono- and dicotyledonous weed plants were placed in plastic pots in sandy loam soil (doubly sown with in each case one species of mono- or dicotyledonous weed plants per pot), covered with soil and cultivated in a greenhouse under controlled growth conditions. 2 to 3 weeks after sowing, the test plants were treated at the one-leaf stage. […] After the test plants had been kept in the greenhouse under optimum growth conditions for about 3 weeks, the activity of the preparations was rated visually in comparison to untreated controls. For example, 100% activity = the plants have died, 0% activity = like control plants.

[16] = test system: ABUTH; assay: Herbicidal pre-emergence action (Table A1); format: in vivo, Abutilon theophrasti; conditions: application rate 1280 g/ha; visual grading after ca. 3 weeks vs untreated controls (100% = plants have died off, 0% = as control plants)
In short: as §2

[17] = test system: POAAN; assay: Herbicidal pre-emergence action (Table A7); format: in vivo, Poa annua; conditions: application rate 320 g/ha; visual grading after ca. 3 weeks
In short: as §2

[18] = test system: DIGSA; assay: Herbicidal post-emergence action (Table B12); format: in vivo, Digitaria sanguinalis; conditions: application rate 1280 g/ha
Method: as §3

[19] = test system: ECHCG; assay: Herbicidal pre-emergence action, section C (Table C6); format: in vivo, Echinochloa crus-galli; conditions: application rate 80 g/ha; visual grading after ca. 3 weeks
[20] = test system: ABUTH; assay: Herbicidal post-emergence action (Table B1); format: in vivo, Abutilon theophrasti; conditions: application rate 1280 g/ha; treated at one-leaf stage; rated visually after about 3 weeks vs untreated controls (100% = plants have died, 0% = like control plants)
In short: (§4)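 Greenhouse post-emergence screen on potted weeds in sandy loam, treatment at one-leaf stage, visual % control scored ~3 weeks later against untreated plants.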

[21] = test system: ZEAMX; assay: Pre-emergence effects on crop plants (Table D1); format: in vivo, Zea mays; conditions: crop plant; application rate 80 g/ha; visual grading after ca. 3 weeks
[22] = test system: ALOMY; assay: Herbicidal post-emergence action, section E (Table E2); format: in vivo, Alopecurus myosuroides; conditions: application rate 320 g/ha; assessed visually after ca. 3 weeks
Excerpt: as §1

[23] = test system: ECHCG; assay: Herbicidal pre-emergence action (Table A2); format: in vivo, Echinochloa crus-galli; conditions: application rate 320 g/ha; visual grading after ca. 3 weeks
In short: as §2

[24] = test system: MATIN; assay: Herbicidal pre-emergence action (Table A4); format: in vivo, Matricaria inodora; conditions: application rate 320 g/ha; visual grading after ca. 3 weeks
In short: as §2

[25] = test system: SETVI; assay: Herbicidal pre-emergence action (Table A5); format: in vivo, Setaria viridis; conditions: application rate 1280 g/ha; visual grading after ca. 3 weeks
In short: as §2

[26] = test system: ORYZA; assay: Pre-emergence effects on crop plants (Table D3); conditions: crop plant; application rate 80 g/ha; visual grading after ca. 3 weeks
[27] = test system: LOLRI; assay: Herbicidal post-emergence action (Table B5); format: in vivo, Lolium rigidum; conditions: application rate 1280 g/ha; rated visually after about 3 weeks
Method: as §3

[28] = test system: STEME; assay: Herbicidal pre-emergence action (Table A6); format: in vivo, Stellaria media; conditions: application rate 320 g/ha; visual grading after ca. 3 weeks
In short: as §2

[29] = test system: KCHSC; assay: Herbicidal pre-emergence action (Table A10); format: in vivo, Kochia scoparia; conditions: application rate 320 g/ha; visual grading after ca. 3 weeks
In short: as §2

[30] = test system: LOLRI; assay: Herbicidal pre-emergence action (Table A3); format: in vivo, Lolium rigidum; conditions: application rate 320 g/ha; visual grading after ca. 3 weeks
In short: as §2

[31] = test system: AMARE; assay: Herbicidal pre-emergence action (Table A8); format: in vivo, Amaranthus retroflexus; conditions: application rate 1280 g/ha; visual grading after ca. 3 weeks vs untreated controls (100% = plants have died off, 0% = as control plants)
In short: as §2

[32] = test system: SETVI; assay: Herbicidal post-emergence action (Table B8); format: in vivo, Setaria viridis; conditions: application rate 1280 g/ha
In short: as §4

[33] = test system: MATIN; assay: Herbicidal post-emergence action (Table B6); format: in vivo, Matricaria inodora; conditions: application rate 1280 g/ha; rated visually after about 3 weeks
In short: as §4

[34] = test system: ECHCG; assay: Herbicidal post-emergence action (Table B3); format: in vivo, Echinochloa crus-galli; conditions: application rate 1280 g/ha; rated visually after about 3 weeks
In short: as §4

[35] = test system: VERPE; assay: Herbicidal post-emergence action (Table B10); format: in vivo, Veronica persica; conditions: application rate 1280 g/ha
In short: as §4

[36] = test system: SETVI; assay: Herbicidal pre-emergence action, section C (Table C10); format: in vivo, Setaria viridis; conditions: application rate 80 g/ha; visual grading after ca. 3 weeks
[37] = test system: DIGSA; assay: Herbicidal pre-emergence action (Table A12); format: in vivo, Digitaria sanguinalis; conditions: application rate 320 g/ha; visual grading after ca. 3 weeks
In short: as §2

[38] = test system: ALOMY; assay: Herbicidal pre-emergence action (Table A9); format: in vivo, Alopecurus myosuroides; conditions: application rate 1280 g/ha; visual grading after ca. 3 weeks
In short: as §2

[39] = test system: LOLRI; assay: Herbicidal pre-emergence action, section C (Table C7); format: in vivo, Lolium rigidum; conditions: application rate 80 g/ha; visual grading after ca. 3 weeks
Excerpt: Seeds of mono- and dicotyledonous weed plants and crop plants were sown, in plastic or organic planting pots, in sandy loam and covered with soil. The compounds according to the invention, formulated in the form of wettable powders (WP) or as emulsifiable concentrates (EC), were applied to the surface of the covering soil as aqueous suspension or emulsion, with the addition of 0.5% of an additive, at an application rate of 600 1 of water/ha (converted). Following treatment, the pots were placed in a greenhouse and kept under optimum growth conditions for the test plants.

[40] = test system: ECHCG; assay: Herbicidal post-emergence action, section E (Table E5); format: in vivo, Echinochloa crus-galli; conditions: application rate 320 g/ha; assessed visually after ca. 3 weeks
Excerpt: as §1

SMILES: O=C1N(Cc2c(F)cccc2F)CCCC12CCCN(Cc1c(F)cccc1F)C2=O (single isomer, unassigned; (+)) [I-083, (+)-2,8-bis[(2,6-difluorophenyl)methyl]-2,8-diazaspiro[5.5]undecane-1,7-dione]
pre-emergence activity against ABUTH [1]: 100%
pre-emergence activity against DIGSA ([2]; application rate 320 g/ha): 90%
post-emergence activity against ORYZA [3]: 0%
pre-emergence activity against VIOTR ([4]; application rate 320 g/ha): 100%
post-emergence activity against ZEAMX ([5]; application rate 320 g/ha): 0%
pre-emergence activity against VERPE ([6]; application rate 320 g/ha): 100%
post-emergence activity against TRZAS [7]: 10%
pre-emergence activity against AMARE [8]: 100%
pre-emergence activity against MATIN [9]: 100%
post-emergence activity against GLXMA ([10]; application rate 320 g/ha): 0%
post-emergence activity against BRSNW [11]: 0%
pre-emergence activity against ALOMY ([12]; application rate 320 g/ha): 90%

pre-emergence activity against ZEAMX [21]: 0%
pre-emergence activity against ORYZA [26]: 0%
SMILES: O=C1N(Cc2cccc(F)c2F)CCC12CCCN(Cc1c(F)cccc1F)C2=O (racemic) [I-015]
pre-emergence activity against ABUTH [1]: 90%
pre-emergence activity against VERPE [13]: 90%
post-emergence activity against VERPE [14]: 80%
pre-emergence activity against DIGSA ([2]; application rate 80 g/ha): 90%
post-emergence activity against KCHSC [15]: 90%
pre-emergence activity against ABUTH [16]: 90%
post-emergence activity against ORYZA [3]: 0%
pre-emergence activity against POAAN [17]: 100%
post-emergence activity against DIGSA [18]: 90%
pre-emergence activity against ECHCG [19]: 100%
post-emergence activity against ABUTH [20]: 90%
pre-emergence activity against VIOTR ([4]; application rate 80 g/ha): 90%
post-emergence activity against ALOMY [22]: 80%
post-emergence activity against ZEAMX ([5]; application rate 80 g/ha): 0%
pre-emergence activity against ECHCG [23]: 100%
pre-emergence activity against MATIN [24]: 90%
pre-emergence activity against VERPE ([6]; application rate 80 g/ha): 90%
pre-emergence activity against SETVI [25]: 100%
post-emergence activity against TRZAS [7]: 0%
post-emergence activity against LOLRI [27]: 90%
pre-emergence activity against STEME [28]: 90%
pre-emergence activity against MATIN [9]: 90%
pre-emergence activity against KCHSC [29]: 90%
pre-emergence activity against LOLRI [30]: 100%
pre-emergence activity against AMARE [31]: 90%
post-emergence activity against SETVI [32]: 90%
post-emergence activity against MATIN [33]: 90%
post-emergence activity against GLXMA ([10]; application rate 80 g/ha): 20%
post-emergence activity against ECHCG [34]: 90%
post-emergence activity against VERPE [35]: 90%
post-emergence activity against BRSNW [11]: 0%
pre-emergence activity against SETVI [36]: 90%
pre-emergence activity against DIGSA [37]: 100%
pre-emergence activity against ALOMY [38]: 90%
pre-emergence activity against LOLRI [39]: 100%
post-emergence activity against ECHCG [40]: 90%
pre-emergence activity against ALOMY ([12]; application rate 80 g/ha): 90%
